Tests used:
[1] = tested on: SARS-CoV-2; assay: Antiviral activity against luciferase-expressing pseudovirus encoding SARS-CoV-2 Omicron expressing S protein infected in human 293T/ACE2 cells assessed as reduction of viral growth measured after 48 hrs by luciferase assay; assay type: functional, organism-based; details: Severe acute respiratory syndrome coronavirus 2, 293T/ACE2, 48 h
[2] = Cytotoxicity against human 293T/ACE2 cells assessed as reduction in cell growth measured after 48 hrs by MTT assay; assay type: functional
[3] = Selectivity index, ratio of CC50 for human 293T/ACE2 cells to EC50 for SARS-CoV-2 Omicron; assay type: toxicity; details: read-out: Ratio CC50/EC50

SMILES: C=C(C)[C@@H]1CC[C@]2(C(=O)Nc3ccc4c(cnn4C)c3)CC[C@]3(C)[C@H](CC[C@@H]4[C@@]5(C)CC[C@H](O[C@@H]6O[C@H](CO)[C@@H](O[C@@H]7O[C@@H](C)[C@H](O)[C@@H](O)[C@H]7O)[C@H](O)[C@H]6O[C@@H]6O[C@@H](C)[C@H](O)[C@@H](O)[C@H]6O)C(C)(C)[C@@H]5CC[C@]43C)[C@@H]12
- EC50 [1]: > 20 µM

SMILES: C=C(C)[C@@H]1CC[C@]2(C(=O)Nc3ccc4sccc4c3)CC[C@]3(C)[C@H](CC[C@@H]4[C@@]5(C)CC[C@H](O[C@@H]6O[C@H](CO)[C@@H](O[C@@H]7O[C@@H](C)[C@H](O)[C@@H](O)[C@H]7O)[C@H](O)[C@H]6O[C@@H]6O[C@@H](C)[C@H](O)[C@@H](O)[C@H]6O)C(C)(C)[C@@H]5CC[C@]43C)[C@@H]12
- EC50 [1]: > 20 µM

SMILES: C=C(C)[C@@H]1CC[C@]2(C(=O)Nc3ccccc3OC)CC[C@]3(C)[C@H](CC[C@@H]4[C@@]5(C)CC[C@H](O[C@@H]6O[C@H](CO)[C@@H](O[C@@H]7O[C@@H](C)[C@H](O)[C@@H](O)[C@H]7O)[C@H](O)[C@H]6O[C@@H]6O[C@@H](C)[C@H](O)[C@@H](O)[C@H]6O)C(C)(C)[C@@H]5CC[C@]43C)[C@@H]12
- EC50 [1]: 6.11 µM
- CC50 [2]: 83.2 µM
- selectivity ratio [3]: 13.6

SMILES: C=C(C)[C@@H]1CC[C@]2(C(=O)NCCc3ccccc3)CC[C@]3(C)[C@H](CC[C@@H]4[C@@]5(C)CC[C@H](O[C@@H]6O[C@H](CO)[C@@H](O[C@@H]7O[C@@H](C)[C@H](O)[C@@H](O)[C@H]7O)[C@H](O)[C@H]6O[C@@H]6O[C@@H](C)[C@H](O)[C@@H](O)[C@H]6O)C(C)(C)[C@@H]5CC[C@]43C)[C@@H]12
- EC50 [1]: 8.47 µM
- CC50 [2]: 226 µM
- selectivity ratio [3]: 26.7

SMILES: C=C(C)[C@@H]1CC[C@]2(C(=O)NCc3ccc(-c4ccccc4)cc3)CC[C@]3(C)[C@H](CC[C@@H]4[C@@]5(C)CC[C@H](O[C@@H]6O[C@H](CO)[C@@H](O[C@@H]7O[C@@H](C)[C@H](O)[C@@H](O)[C@H]7O)[C@H](O)[C@H]6O[C@@H]6O[C@@H](C)[C@H](O)[C@@H](O)[C@H]6O)C(C)(C)[C@@H]5CC[C@]43C)[C@@H]12
- EC50 [1]: > 20 µM

SMILES: C=C(C)[C@@H]1CC[C@]2(C(=O)OC)CC[C@]3(C)[C@H](CC[C@@H]4[C@@]5(C)CC[C@H](O[C@@H]6O[C@H](CO)[C@@H](O[C@@H]7O[C@@H](C)[C@H](O)[C@@H](O)[C@H]7O)[C@H](O)[C@H]6O[C@@H]6O[C@@H](C)[C@H](O)[C@@H](O)[C@H]6O)C(C)(C)[C@@H]5CC[C@]43C)[C@@H]12
- EC50 [1]: 7.04 µM
- CC50 [2]: 40.9 µM
- selectivity ratio [3]: 5.8

SMILES: C=C(C)[C@@H]1CC[C@]2(C(=O)NNCc3ccccc3)CC[C@]3(C)[C@H](CC[C@@H]4[C@@]5(C)CC[C@H](O[C@@H]6O[C@H](CO)[C@@H](O[C@@H]7O[C@@H](C)[C@H](O)[C@@H](O)[C@H]7O)[C@H](O)[C@H]6O[C@@H]6O[C@@H](C)[C@H](O)[C@@H](O)[C@H]6O)C(C)(C)[C@@H]5CC[C@]43C)[C@@H]12
- EC50 [1]: > 20 µM

SMILES: C=C(C)[C@@H]1CC[C@]2(C(=O)NCc3ccccc3OC)CC[C@]3(C)[C@H](CC[C@@H]4[C@@]5(C)CC[C@H](O[C@@H]6O[C@H](CO)[C@@H](O[C@@H]7O[C@@H](C)[C@H](O)[C@@H](O)[C@H]7O)[C@H](O)[C@H]6O[C@@H]6O[C@@H](C)[C@H](O)[C@@H](O)[C@H]6O)C(C)(C)[C@@H]5CC[C@]43C)[C@@H]12
- EC50 [1]: > 20 µM

SMILES: C=C(C)[C@@H]1CC[C@]2(C(=O)NCc3ccc(OC)cc3)CC[C@]3(C)[C@H](CC[C@@H]4[C@@]5(C)CC[C@H](O[C@@H]6O[C@H](CO)[C@@H](O[C@@H]7O[C@@H](C)[C@H](O)[C@@H](O)[C@H]7O)[C@H](O)[C@H]6O[C@@H]6O[C@@H](C)[C@H](O)[C@@H](O)[C@H]6O)C(C)(C)[C@@H]5CC[C@]43C)[C@@H]12
- EC50 [1]: > 20 µM

SMILES: C=C(C)[C@@H]1CC[C@]2(C(=O)NCC3CCCCC3)CC[C@]3(C)[C@H](CC[C@@H]4[C@@]5(C)CC[C@H](O[C@@H]6O[C@H](CO)[C@@H](O[C@@H]7O[C@@H](C)[C@H](O)[C@@H](O)[C@H]7O)[C@H](O)[C@H]6O[C@@H]6O[C@@H](C)[C@H](O)[C@@H](O)[C@H]6O)C(C)(C)[C@@H]5CC[C@]43C)[C@@H]12
- EC50 [1]: > 20 µM

SMILES: C=C(C)[C@@H]1CC[C@]2(C(=O)Nc3ccc(OC)cc3)CC[C@]3(C)[C@H](CC[C@@H]4[C@@]5(C)CC[C@H](O[C@@H]6O[C@H](CO)[C@@H](O[C@@H]7O[C@@H](C)[C@H](O)[C@@H](O)[C@H]7O)[C@H](O)[C@H]6O[C@@H]6O[C@@H](C)[C@H](O)[C@@H](O)[C@H]6O)C(C)(C)[C@@H]5CC[C@]43C)[C@@H]12
- EC50 [1]: 9.44 µM
- CC50 [2]: 178 µM
- selectivity ratio [3]: 18.9

SMILES: C=C(C)[C@@H]1CC[C@]2(C(=O)NOc3ccccc3)CC[C@]3(C)[C@H](CC[C@@H]4[C@@]5(C)CC[C@H](O[C@@H]6O[C@H](CO)[C@@H](O[C@@H]7O[C@@H](C)[C@H](O)[C@@H](O)[C@H]7O)[C@H](O)[C@H]6O[C@@H]6O[C@@H](C)[C@H](O)[C@@H](O)[C@H]6O)C(C)(C)[C@@H]5CC[C@]43C)[C@@H]12
- EC50 [1]: 9.88 µM
- CC50 [2]: 116 µM
- selectivity ratio [3]: 11.7

SMILES: C=C(C)[C@@H]1CC[C@]2(C(=O)Nc3ccc(-c4ccccc4)cc3)CC[C@]3(C)[C@H](CC[C@@H]4[C@@]5(C)CC[C@H](O[C@@H]6O[C@H](CO)[C@@H](O[C@@H]7O[C@@H](C)[C@H](O)[C@@H](O)[C@H]7O)[C@H](O)[C@H]6O[C@@H]6O[C@@H](C)[C@H](O)[C@@H](O)[C@H]6O)C(C)(C)[C@@H]5CC[C@]43C)[C@@H]12
- EC50 [1]: 8.46 µM
- CC50 [2]: 100 µM
- selectivity ratio [3]: 11.9

SMILES: C=C(C)[C@@H]1CC[C@]2(C(=O)NCc3cccs3)CC[C@]3(C)[C@H](CC[C@@H]4[C@@]5(C)CC[C@H](O[C@@H]6O[C@H](CO)[C@@H](O[C@@H]7O[C@@H](C)[C@H](O)[C@@H](O)[C@H]7O)[C@H](O)[C@H]6O[C@@H]6O[C@@H](C)[C@H](O)[C@@H](O)[C@H]6O)C(C)(C)[C@@H]5CC[C@]43C)[C@@H]12
- EC50 [1]: 6.15 µM
- CC50 [2]: 41.9 µM
- selectivity ratio [3]: 6.81

SMILES: C=C(C)[C@@H]1CC[C@]2(C(=O)NCc3ccccc3Cl)CC[C@]3(C)[C@H](CC[C@@H]4[C@@]5(C)CC[C@H](O[C@@H]6O[C@H](CO)[C@@H](O[C@@H]7O[C@@H](C)[C@H](O)[C@@H](O)[C@H]7O)[C@H](O)[C@H]6O[C@@H]6O[C@@H](C)[C@H](O)[C@@H](O)[C@H]6O)C(C)(C)[C@@H]5CC[C@]43C)[C@@H]12
- EC50 [1]: > 20 µM

SMILES: C=C(C)[C@@H]1CC[C@]2(C(=O)Nc3ccc(Cl)cc3)CC[C@]3(C)[C@H](CC[C@@H]4[C@@]5(C)CC[C@H](O[C@@H]6O[C@H](CO)[C@@H](O[C@@H]7O[C@@H](C)[C@H](O)[C@@H](O)[C@H]7O)[C@H](O)[C@H]6O[C@@H]6O[C@@H](C)[C@H](O)[C@@H](O)[C@H]6O)C(C)(C)[C@@H]5CC[C@]43C)[C@@H]12
- EC50 [1]: 6.5 µM
- CC50 [2]: 87.5 µM
- selectivity ratio [3]: 13.5

SMILES: C=C(C)[C@@H]1CC[C@]2(C(=O)Nc3cccc(OC)c3)CC[C@]3(C)[C@H](CC[C@@H]4[C@@]5(C)CC[C@H](O[C@@H]6O[C@H](CO)[C@@H](O[C@@H]7O[C@@H](C)[C@H](O)[C@@H](O)[C@H]7O)[C@H](O)[C@H]6O[C@@H]6O[C@@H](C)[C@H](O)[C@@H](O)[C@H]6O)C(C)(C)[C@@H]5CC[C@]43C)[C@@H]12
- EC50 [1]: 2.73 µM
- CC50 [2]: 73.3 µM
- selectivity ratio [3]: 26.9

SMILES: C=C(C)[C@@H]1CC[C@]2(C(=O)NCc3ccc(Cl)cc3)CC[C@]3(C)[C@H](CC[C@@H]4[C@@]5(C)CC[C@H](O[C@@H]6O[C@H](CO)[C@@H](O[C@@H]7O[C@@H](C)[C@H](O)[C@@H](O)[C@H]7O)[C@H](O)[C@H]6O[C@@H]6O[C@@H](C)[C@H](O)[C@@H](O)[C@H]6O)C(C)(C)[C@@H]5CC[C@]43C)[C@@H]12
- EC50 [1]: > 20 µM

SMILES: C=C(C)[C@@H]1CC[C@]2(C(=O)NCc3cccc(Cl)c3)CC[C@]3(C)[C@H](CC[C@@H]4[C@@]5(C)CC[C@H](O[C@@H]6O[C@H](CO)[C@@H](O[C@@H]7O[C@@H](C)[C@H](O)[C@@H](O)[C@H]7O)[C@H](O)[C@H]6O[C@@H]6O[C@@H](C)[C@H](O)[C@@H](O)[C@H]6O)C(C)(C)[C@@H]5CC[C@]43C)[C@@H]12
- EC50 [1]: > 20 µM

SMILES: C=C(C)[C@@H]1CC[C@]2(C(=O)NCc3cccc(OC)c3)CC[C@]3(C)[C@H](CC[C@@H]4[C@@]5(C)CC[C@H](O[C@@H]6O[C@H](CO)[C@@H](O[C@@H]7O[C@@H](C)[C@H](O)[C@@H](O)[C@H]7O)[C@H](O)[C@H]6O[C@@H]6O[C@@H](C)[C@H](O)[C@@H](O)[C@H]6O)C(C)(C)[C@@H]5CC[C@]43C)[C@@H]12
- EC50 [1]: > 20 µM

SMILES: C=C(C)[C@@H]1CC[C@]2(C(=O)NNc3ccccc3)CC[C@]3(C)[C@H](CC[C@@H]4[C@@]5(C)CC[C@H](O[C@@H]6O[C@H](CO)[C@@H](O[C@@H]7O[C@@H](C)[C@H](O)[C@@H](O)[C@H]7O)[C@H](O)[C@H]6O[C@@H]6O[C@@H](C)[C@H](O)[C@@H](O)[C@H]6O)C(C)(C)[C@@H]5CC[C@]43C)[C@@H]12
- EC50 [1]: > 20 µM

SMILES: C=C(C)[C@@H]1CC[C@]2(C(=O)NCc3ccco3)CC[C@]3(C)[C@H](CC[C@@H]4[C@@]5(C)CC[C@H](O[C@@H]6O[C@H](CO)[C@@H](O[C@@H]7O[C@@H](C)[C@H](O)[C@@H](O)[C@H]7O)[C@H](O)[C@H]6O[C@@H]6O[C@@H](C)[C@H](O)[C@@H](O)[C@H]6O)C(C)(C)[C@@H]5CC[C@]43C)[C@@H]12
- EC50 [1]: > 20 µM
